These results are taken from ChEMBL document CHEMBL1759842, “Discovery of non-glucoside SGLT2 inhibitors” (Bioorg Med Chem Lett, 2011).

Data set [1] can be described thus: Metabolic stability in human liver microsomes assessed as compound remaining after 30 mins. The following applies: read-out: Stability. The data set is classed as ADME, Microsome. (Microsomes from liver hold many membrane-bound enzymes, among them those of drug oxidation.)
Data set [2] concerns the target T1, Sodium/glucose cotransporter 2 (Homo sapiens, UniProt P31639).
T1 sequence (P31639 whole entry): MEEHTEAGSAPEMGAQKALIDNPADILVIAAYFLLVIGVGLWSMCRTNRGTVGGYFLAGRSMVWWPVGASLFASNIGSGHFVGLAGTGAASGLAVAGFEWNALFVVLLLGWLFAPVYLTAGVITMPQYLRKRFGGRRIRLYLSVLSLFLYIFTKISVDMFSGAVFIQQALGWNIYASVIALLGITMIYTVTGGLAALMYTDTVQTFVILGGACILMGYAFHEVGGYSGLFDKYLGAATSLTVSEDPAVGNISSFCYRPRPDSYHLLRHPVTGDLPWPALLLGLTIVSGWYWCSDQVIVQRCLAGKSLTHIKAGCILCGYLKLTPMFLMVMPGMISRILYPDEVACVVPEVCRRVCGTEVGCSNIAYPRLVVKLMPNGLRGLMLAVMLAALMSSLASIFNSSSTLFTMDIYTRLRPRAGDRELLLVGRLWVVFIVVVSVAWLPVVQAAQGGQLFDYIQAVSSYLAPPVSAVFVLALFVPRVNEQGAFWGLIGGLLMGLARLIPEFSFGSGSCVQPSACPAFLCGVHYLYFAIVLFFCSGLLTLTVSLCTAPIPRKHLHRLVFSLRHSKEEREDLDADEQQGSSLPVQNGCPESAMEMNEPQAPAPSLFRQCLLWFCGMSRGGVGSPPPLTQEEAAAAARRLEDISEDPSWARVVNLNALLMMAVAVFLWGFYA
Put plainly: Inhibition of human SGLT2 expressed in CHO cells assessed as inhibition of [14C]-alpha-methyl-D-glucopyranoside transport after 60 mins by scintillation counting in presence of 100% plasma. The data set is classed as cell-based.

Data set [3] has as its target T2, Sodium/myo-inositol cotransporter 2 (Homo sapiens, UniProt Q8WWX8).
T2 sequence (Q8WWX8 whole entry): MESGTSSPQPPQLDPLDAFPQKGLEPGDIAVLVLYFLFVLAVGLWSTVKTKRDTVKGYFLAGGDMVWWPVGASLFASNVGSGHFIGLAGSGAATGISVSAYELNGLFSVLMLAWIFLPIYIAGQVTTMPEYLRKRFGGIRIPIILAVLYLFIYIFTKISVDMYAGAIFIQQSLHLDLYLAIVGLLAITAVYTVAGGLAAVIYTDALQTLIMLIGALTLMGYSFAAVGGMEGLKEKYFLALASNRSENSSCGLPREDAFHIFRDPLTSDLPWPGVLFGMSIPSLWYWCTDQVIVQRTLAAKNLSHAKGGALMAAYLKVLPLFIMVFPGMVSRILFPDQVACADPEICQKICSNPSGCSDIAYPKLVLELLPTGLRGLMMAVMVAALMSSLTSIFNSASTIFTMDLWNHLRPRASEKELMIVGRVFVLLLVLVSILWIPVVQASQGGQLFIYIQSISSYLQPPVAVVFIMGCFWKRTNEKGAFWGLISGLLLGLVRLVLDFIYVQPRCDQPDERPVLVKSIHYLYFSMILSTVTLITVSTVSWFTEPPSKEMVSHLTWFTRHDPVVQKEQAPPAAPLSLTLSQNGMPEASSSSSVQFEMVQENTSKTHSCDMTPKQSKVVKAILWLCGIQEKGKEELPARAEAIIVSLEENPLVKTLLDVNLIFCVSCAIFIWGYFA
Put plainly: Inhibition of SGLT6 expressed in CHO cells assessed as inhibition of [14C]-alpha-methyl-D-glucopyranoside transport after 60 mins by scintillation counting. It counts as cell-based.

Data set [4] addresses T1, Sodium/glucose cotransporter 2. Put plainly: Inhibition of human SGLT2 expressed in CHO cells assessed as inhibition of [14C]-alpha-methyl-D-glucopyranoside transport after 60 mins by scintillation counting. The data set is classed as cell-based.
In data set [5] the target is T3, Sodium/glucose cotransporter 1 (Homo sapiens, UniProt P13866).
T3 sequence (P13866 whole entry): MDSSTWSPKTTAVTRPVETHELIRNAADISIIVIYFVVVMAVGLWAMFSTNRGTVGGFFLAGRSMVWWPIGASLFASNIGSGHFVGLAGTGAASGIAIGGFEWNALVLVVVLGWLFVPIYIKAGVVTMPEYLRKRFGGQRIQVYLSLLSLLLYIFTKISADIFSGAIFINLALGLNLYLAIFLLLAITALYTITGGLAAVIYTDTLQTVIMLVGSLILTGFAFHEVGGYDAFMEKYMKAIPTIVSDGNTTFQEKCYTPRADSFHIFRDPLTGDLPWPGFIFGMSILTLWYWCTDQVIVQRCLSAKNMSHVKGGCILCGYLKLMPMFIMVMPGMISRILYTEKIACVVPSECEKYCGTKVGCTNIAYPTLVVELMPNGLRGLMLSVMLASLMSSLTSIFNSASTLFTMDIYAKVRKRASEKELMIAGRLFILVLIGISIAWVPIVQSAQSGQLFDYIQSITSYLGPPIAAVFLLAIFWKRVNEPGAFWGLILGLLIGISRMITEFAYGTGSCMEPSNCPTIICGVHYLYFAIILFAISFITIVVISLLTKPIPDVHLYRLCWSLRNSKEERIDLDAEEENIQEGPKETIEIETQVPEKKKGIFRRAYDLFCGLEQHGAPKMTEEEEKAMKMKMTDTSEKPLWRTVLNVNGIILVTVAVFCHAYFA
The experiment in a line: Inhibition of human SGLT1 expressed in CHO cells assessed as inhibition of [14C]-alpha-methyl-D-glucopyranoside transport after 60 mins by scintillation counting. It counts as cell-based.

The nature of data set [6]: Metabolic stability in rat liver microsomes assessed as compound remaining after 30 mins. The data set is classed as ADME, Microsome. Conditions: read-out: Stability.
Data set [7] concerns the target T1, Sodium/glucose cotransporter 2. Put plainly: Displacement of [3H]dapagliflozin from human SGLT2 expressed in CHO cells after 60 mins by scintillation counting. It counts as cell-based. (In a radioligand displacement assay an active substance lowers the binding of a labelled ligand.)

Regarding `CCCn1c(CCc2ccc(Cl)cc2)nnc1CN1C(=O)COc2c(Cl)cc(Cl)cc21`, the remaining at 0.5 h in data set [1] and in data set [6] was 4% throughout. Also, the concentration for half-maximal inhibition (IC50) – broadly, the concentration at which inhibition is half-maximal – in data set [2] turned out to be 40 nM; in data set [3], 14.4 µM; in data set [4], 9 nM; in data set [5], 9.14 µM; in data set [7] it was 16 nM.

Turning to `O=C1COc2c(Cl)cc(Cl)cc2N1Cc1nnc(CCc2ccc(Cl)cc2)n1CCC(F)(F)F`, the remaining at 0.5 h in data set [1] and in data set [6] was 4% throughout. In data set [3], the IC50 is 9.2 µM.

Consider `CCOc1ccc(Cc2cc([C@@H]3O[C@H](CO)[C@@H](O)[C@H](O)[C@H]3O)ccc2Cl)cc1` [DAPAGLIFLOZIN], for which the IC50 in data set [3] was determined as 0.38 µM.

On to `CCn1c(CN2C(=O)COc3cc(Br)ccc32)nnc1SCc1ccc(Cl)cc1`, for which the IC50 is 520 nM in data set [4] and 2.53 µM in data set [5].

Consider `O=C1COc2ccc(Cl)cc2N1Cc1nnc(CCc2ccc(Cl)cc2)n1C1CC1`, for which the values for the half-inhibitory concentration (IC50) in data set [4] and in data set [5] were 1580 nM and 25 µM, respectively.

On to `CCCn1c(CCc2ccc(Cl)cc2)nnc1CN1C(=O)COc2ccc(C(F)(F)F)cc21`, for which the half-inhibitory concentration (IC50) turned out to be 180 nM in data set [4] and 9.88 µM in data set [5].

As to `O=C1COc2ccc(Cl)cc2N1Cc1nnc(CCc2ccc(Cl)cc2)n1CC1CC1`, the half-inhibitory concentration (IC50) came out at 30 nM in data set [4] and 7.28 µM in data set [5].

In the case of `CCn1c(CN2C(=O)COc3ccc(Br)cc32)nnc1SCc1ccc(Cl)cc1`, the IC50 is 90 nM in data set [4] and 5.32 µM in data set [5].

Turning to `O=C1CSc2ccc(C(F)(F)F)cc2N1Cc1nnc(SCc2ccc(Cl)cc2)n1-c1ccccc1`, the values for the IC50 in data set [4] and in data set [5] were 2110 nM and 3.47 µM, respectively.

For `CCCCn1c(CCc2ccc(Cl)cc2)nnc1CN1C(=O)COc2ccc(Cl)cc21`, the half-maximal inhibitory concentration (IC50) is 30 nM in data set [4] and 11.8 µM in data set [5].

On to `CCn1c(CN2C(=O)CSc3ccc(C(F)(F)F)cc32)nnc1SCc1ccc(Cl)cc1`, for which the concentration for half-maximal inhibition (IC50) in data set [4] worked out at 370 nM; in data set [5], 4.75 µM.

As for `CCn1c(CN2C(=O)COc3ccc(C(F)(F)F)cc32)nnc1SCc1ccc(Cl)cc1`, the IC50 in data set [4] was 250 nM; in data set [5] it was 6.64 µM.

For the compound `CC(C)n1c(CN2C(=O)CSc3ccc(C(F)(F)F)cc32)nnc1SCc1ccc(Cl)cc1`, the figures for the IC50 in data set [4] and in data set [5] were 1200 nM and 2 µM, respectively.

For the compound `O=C1CSc2ccc(C(F)(F)F)cc2N1Cc1nnc(SCc2ccc(Cl)cc2)n1C1CC1`, the values for the IC50 in data set [4] and in data set [5] were 1100 nM and 3.75 µM, respectively.

For the compound `CC(C)Cn1c(CCc2ccc(Cl)cc2)nnc1CN1C(=O)COc2ccc(Cl)cc21`, the IC50 is 160 nM in data set [4] and 6.9 µM in data set [5].

For the compound `CCn1c(CN2C(=O)COc3ccc([N+](=O)[O-])cc32)nnc1SCc1ccc(Cl)cc1`, the results for the IC50 in data set [4] and in data set [5] were 2100 nM and 5.61 µM, respectively.

`CCn1c(CN2C(=O)COc3ccc(C)cc32)nnc1SCc1ccc(Cl)cc1`: the IC50 is 80 nM in data set [4] and 7.13 µM in data set [5].

Regarding `O=C1COc2ccc(Cl)cc2N1Cc1nnc(CCc2ccc(Cl)cc2)n1CCC(F)(F)F`, the half-maximal inhibitory concentration (IC50) in data set [4] is 70 nM; in data set [5], 13.8 µM.

Regarding `CCn1c(CN2C(=O)COc3c(Cl)cccc32)nnc1SCc1ccc(Cl)cc1`, the IC50 in data set [4] was 150 nM; in data set [5] it was 7.34 µM.

Regarding `CCn1c(CCc2ccc(Cl)cc2)nnc1CN1C(=O)COc2ccc(C(F)(F)F)cc21`, the results for the IC50 in data set [4] and in data set [5] were 640 nM and 46 µM, respectively.

For `CCn1c(CN2C(=O)COc3ccc(Cl)cc32)nnc1SCc1ccc(Cl)cc1`, the IC50 in data set [4] is 150 nM; in data set [5], 7.34 µM.

For `CCn1c(CN2C(=O)COc3cc(Cl)ccc32)nnc1SCc1ccc(Cl)cc1`, the IC50 in data set [4] came to 430 nM; in data set [5], 3.29 µM.

As to `CCCn1c(CCc2ccc(Cl)cc2)nnc1CN1C(=O)COc2ccc(Cl)cc21`, the IC50 amounted to 40 nM in data set [4] and 13.6 µM in data set [5].
